Measured values from article PMC7707092, “Discovery and characterization of ORM‐11372, a novel inhibitor of the sodium‐calcium exchanger with positive inotropic activity” (British Journal of Pharmacology, 2020).
In brackets after ≈: the same amount, converted by molar mass. Several values for one entry are separate records, joined by “and”; a condition that tells them apart may be missing. Equal values may be shown once. Read-outs that look alike come from different tables or passages of the source.

Columns and labels:
[1] = Solubility; format: physicochemical
[2] = target: hERG (Homo sapiens, UniProt Q12809); assay: hERG IC50 of Table 1 / Table S2 (method not assigned); format: cell-based; conditions: n=4 assays
Chain of hERG (Q12809 whole entry): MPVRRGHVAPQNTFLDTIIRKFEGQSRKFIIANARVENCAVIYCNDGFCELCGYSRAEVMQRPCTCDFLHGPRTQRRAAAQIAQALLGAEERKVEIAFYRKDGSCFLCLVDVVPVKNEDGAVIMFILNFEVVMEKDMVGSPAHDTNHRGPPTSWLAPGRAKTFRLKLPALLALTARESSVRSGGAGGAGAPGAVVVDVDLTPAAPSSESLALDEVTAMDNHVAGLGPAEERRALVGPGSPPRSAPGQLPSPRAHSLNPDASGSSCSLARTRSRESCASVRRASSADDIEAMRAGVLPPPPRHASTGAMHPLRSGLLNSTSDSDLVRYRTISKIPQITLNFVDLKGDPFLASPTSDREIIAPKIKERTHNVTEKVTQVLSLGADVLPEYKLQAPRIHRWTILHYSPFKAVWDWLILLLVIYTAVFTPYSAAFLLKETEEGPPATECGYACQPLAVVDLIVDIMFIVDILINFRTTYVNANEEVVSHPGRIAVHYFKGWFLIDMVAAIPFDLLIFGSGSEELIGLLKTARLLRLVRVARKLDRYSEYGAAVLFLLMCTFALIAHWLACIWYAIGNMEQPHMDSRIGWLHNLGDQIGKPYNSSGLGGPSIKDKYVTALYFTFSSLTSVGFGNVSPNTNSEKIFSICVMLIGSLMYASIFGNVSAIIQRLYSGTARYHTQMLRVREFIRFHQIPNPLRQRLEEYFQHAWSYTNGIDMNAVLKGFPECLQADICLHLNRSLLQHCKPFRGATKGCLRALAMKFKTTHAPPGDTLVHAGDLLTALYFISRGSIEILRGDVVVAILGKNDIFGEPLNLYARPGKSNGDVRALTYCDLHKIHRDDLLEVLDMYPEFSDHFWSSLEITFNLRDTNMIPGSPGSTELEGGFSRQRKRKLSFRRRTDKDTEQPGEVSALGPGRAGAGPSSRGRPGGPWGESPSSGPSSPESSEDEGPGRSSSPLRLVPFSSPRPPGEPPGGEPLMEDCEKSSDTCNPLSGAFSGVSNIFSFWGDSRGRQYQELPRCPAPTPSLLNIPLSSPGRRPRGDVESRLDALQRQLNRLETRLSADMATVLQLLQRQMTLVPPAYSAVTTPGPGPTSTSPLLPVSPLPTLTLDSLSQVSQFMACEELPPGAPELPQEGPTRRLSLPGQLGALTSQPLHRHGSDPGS

[3] = tested on: L‐type calcium channel; assay: L‐type calcium channel inhibition, fluorescence assay in IMR‐32 cells; format: cell-based, human; conditions: KCl depolarization, n=4 assays, read-out: L‐type Ca^2+ IC50
Description: CHO cells stably expressing either hERG1a (KV11.1) channels (KCNH2; RRID:CVCL_H512) or human 5‐HT2B receptors were cultured at 37°C in a 5% CO2/95% air atmosphere in the Ham's Nutrient Mixture F‐12 (HAM F‐12) medium supplemented with 10% FBS (heat inactivated), 100 μg·ml^−1 of hygromycin B (Invitrogen), and 100 μg·ml^−1 of geneticin or 100 IU·ml^−1 of penicillin and 100 IU·ml^−1 of streptomycin, 25‐mM HEPES, 500 μg·ml^−1 of geneticin, and 250 μg·ml^−1 of Zeocin®. Adhered cells were detached using either Detachin® solution or trypsin and replated twice a week. HEK 293 (RRID:CVCL_0045) and IMR‐32 cells (CCL‐127; RRID:CVCL_0346) were cultured similarly but maintained instead in DMEM, supplemented with 10% FBS (heat inactivated), 100 IU·ml^−1 of penicillin and 100 IU·ml^−1 of streptomycin, and 25‐mM HEPES, and in the case of the IMR‐32 cell line, with minimum essential medium (MEM) non‐essential amino acids. IMR‐32 cells are derived from a human neuroblastoma and endogenously express L‐type (CaV1.x) calcium channel (Sher, Gotti, Pandiella, Madeddu, & Clementi, 1988).
Undifferentiated IMR‐32 cells were harvested, centrifuged, and resuspended in a probenecid‐Ringer solution consisting (in mM) 150 NaCl, 3 KCl, 1.2 MgCl2, 1 CaCl2, 20 HEPES, 5 glucose and 2.5 probenecid (pH 7.4 adjusted with NaOH, osmolarity 320–324 mOsm). We added 0.04% Pluronic F‐127 and Fluo‐4 to this solution, and after incubating the cells for 30 min at room temperature, these additives were removed from the probenecid‐Ringer solution by centrifugation and resuspension. The cell suspension was pipetted (250,000 cells in 75 μl per well) into a 96‐well plate, into which the test compound (75 μl per well at […] the final concentration; five concentrations with eight replicates) had already been added. The plate was centrifuged once (5 min, at 287 x g) to ensure that the cells were moved to the bottom of the wells. FLEXstation was then used to measure the increase in intracellular calcium at 37°C, following depolarization, which was induced by the addition (50 μl per well) of a KCl‐Ringer solution containing (in mM) 200 KCl, 20 CaCl2, 1.2 MgCl2, 20 HEPES and 2.5 probenecid respectively (pH adjusted to 7.4 with KOH, with an osmolarity of 320–324 mOsm).

[4] = target: T1, human NCX 1.1 (Homo sapiens, UniProt P32418); assay: Fluorescence screening assay for hNCX 1.1 inhibition (reverse mode, Sf9 cells); format: cell-based; conditions: for IC50: Sf9 cells expressing human NCX1.1, reverse mode, fluorescence, n=3 assays
T1 construct: expressed in transfected cells
Description: Spodoptera frugiperda (Sf9; RRID:CVCL_0549) cells are widely used for the transient and stable expression of recombinant proteins. Here, Sf9 cells were stably transfected with human NCX 1.1 and maintained in spinner flasks with insect cell culture medium (TNM‐FH), supplemented with 10% FBS, antibiotic–antimycotic solution, and 50 μg·ml^−1 of blasticidin at 28°C in a non‐humidified, CO2‐free atmosphere. The Sf9 cell suspension was subcultured three times a week.
NCX reverse mode activity was stimulated via a 50% dilution of the extracellular Na^+ level using the internal pipettor of FLEXstation, a fluorescence imaging plate reader (Molecular Devices, USA), while simultaneously monitoring intracellular calcium levels. After dilution, the concentration of other ions remained the same, but Na^+ concentration was diluted to the half of original concentration of 172 to 86 mM. For Sf9 insect cells, normal extracellular Na^+ ion concentration is 172 mM. Typically, 50 μl of a solution containing 150,000–200,000 Sf9–NCX cells was loaded onto each well of a 96‐well plate. Cells were preincubated with the intracellular calcium dye Fluo‐4 and Fluo‐6, and the concentrations of the test compound (three replicates) were determined for about 1 h at room temperature before experimentation. The extracellular solution contained (in mM) 172 NaCl, 10 HEPES, 1 CaCl2, 1.2 MgCl2, 0.33 NaH2PO4, 5 glucose, and 5 probenecid. The pH was adjusted to 7.4 with NaOH. The extracellular Na^+ was diluted by the addition of a Na^+‐free extracellular solution (containing in mM: 147 N‐methyl‐D‐glucamine (NMDG), 10 HEPES, 1 CaCl2, 1.2 MgCl2, 0.33 NaH2PO4, and 5 glucose with the pH adjusted by HCl to 7.4)‐induced robust and reproducible elevation of intracellular calcium. The osmolarity of both solutions was adjusted to 340–355 mOsm in order to match the Sf9 cell media osmolarity. In each plate, the IC50 determination for each test compound was based on relative fluorescence changes in comparison with control and 5‐mM nickel acetate‐induced NCX inhibition.

[5] = target: T2, MAO A (Homo sapiens, UniProt P21397); assay: MAO A inhibition (Table S2); format: biochemical
T2 sequence (P21397 1-527): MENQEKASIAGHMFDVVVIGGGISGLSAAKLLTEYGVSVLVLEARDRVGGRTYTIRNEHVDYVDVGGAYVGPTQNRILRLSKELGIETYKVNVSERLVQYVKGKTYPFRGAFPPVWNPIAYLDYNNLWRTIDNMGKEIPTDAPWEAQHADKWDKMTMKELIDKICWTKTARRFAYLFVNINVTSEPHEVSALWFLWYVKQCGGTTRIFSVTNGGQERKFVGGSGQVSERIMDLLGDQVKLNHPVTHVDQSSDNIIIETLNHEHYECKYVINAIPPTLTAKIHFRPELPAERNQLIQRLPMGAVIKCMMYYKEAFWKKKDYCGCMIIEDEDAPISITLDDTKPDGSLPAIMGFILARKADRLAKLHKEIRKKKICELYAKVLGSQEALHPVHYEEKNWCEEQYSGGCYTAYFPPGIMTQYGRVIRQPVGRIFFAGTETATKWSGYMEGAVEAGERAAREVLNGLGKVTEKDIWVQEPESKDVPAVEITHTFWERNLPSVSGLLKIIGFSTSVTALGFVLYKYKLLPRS

IC50 [3]	IC50 [4]	MAO A inhibition ([5]; 10 μM)	solubility ([1]; pH 7.4 phosphate buffer)	Solubility class ([1]; pH 7.4 phosphate buffer, listed as SEA 0400)	IC50 [5]	Structure (SMILES)	Solubility class ([1]; pH 7.4 phosphate buffer)	IC50 [2]	solubility ([1]; 5% glucose solution, saline or isotonic, 5% glucose used for in vivo dosing, read-out: Solubility in 5% glucose solution)	solubility ([1]; phosphate buffer, pH 7.4, aqueous buffer, pH 7.4 phosphate buffer, read-out: Solubility)	solubility ([1]; phosphate buffer, pH 7.4, aqueous buffer, pH 7.4 phosphate buffer, read-out: Solubility class)	solubility ([1]; saline, saline or isotonic, saline used for in vivo dosing, read-out: Solubility in saline)	potency as NCX inhibitor relative to SEA0400 [4]	inhibition at 10 µM ([5]; 10 μM)
11.4 µM	0.197 µM	11%				O=C(CN1CCC(O)CC1)Nc1ccc(Oc2ccc3c(c2)CCC(c2ccccc2)O3)nc1 (stereo not drawn) [ORM-10962]	Moderate (moderate solubility between 10-100 µg/ml)	3.4 µM						
3.4 µM	0.376 µM		less than 10 μg·ml^−1	Insoluble (insoluble less than 10 µg/ml)	4.34 µM	CCOc1ccc(Oc2ccc(OCc3cc(F)ccc3F)cc2)c(N)c1 [SEA0400, reference compound]	insoluble	2.8 µM						

Structure (SMILES)	IC50 [3]	IC50 [4]	MAO A inhibition ([5]; 10 μM)	solubility ([1]; pH 7.4 phosphate buffer)	Solubility class ([1]; pH 7.4 phosphate buffer, listed as SEA 0400)	IC50 [5]	Solubility class ([1]; pH 7.4 phosphate buffer)	IC50 [2]	solubility ([1]; 5% glucose solution, saline or isotonic, 5% glucose used for in vivo dosing, read-out: Solubility in 5% glucose solution)	solubility ([1]; phosphate buffer, pH 7.4, aqueous buffer, pH 7.4 phosphate buffer, read-out: Solubility)	solubility ([1]; phosphate buffer, pH 7.4, aqueous buffer, pH 7.4 phosphate buffer, read-out: Solubility class)	solubility ([1]; saline, saline or isotonic, saline used for in vivo dosing, read-out: Solubility in saline)	potency as NCX inhibitor relative to SEA0400 [4]	inhibition at 10 µM ([5]; 10 μM)
Nc1cccc(-c2ccc(CNc3ccc(F)cc3)o2)c1 [ORM‐11372]	6.1 µM	0.0062 µM and 0.006 µM						10.6 µM	5400 µg/mL (≈ 19.1 mM)	10 to 100 µg/mL (≈ 0.0354 to 0.354 mM)	10 to 100 µg/mL (≈ 0.0354 to 0.354 mM)	5300 µg/mL (≈ 18.8 mM)	more than 10 times	29%
